Measurements: ChEMBL document CHEMBL1153069, “Isolation, enzyme-bound structure and antibacterial activity of platencin A1 from Streptomyces platensis” (Bioorg Med Chem Lett, 2009)
Values after ≈ are worked out from the molar mass of the structure shown. Active and inactive are the calls of the source. The calls are words filed in the database; no cut-off is given here.

What was measured:
[1] = test system: Staphylococcus aureus; assay: Antibacterial activity against Staphylococcus aureus Smith at 64 ug/mL; format: functional, organism-based
[2] = test system: Streptococcus pneumoniae; assay: Antibacterial activity against Streptococcus pneumoniae CL2883 at 64 ug/mL; format: functional, organism-based
[3] = test system: Enterococcus faecalis; assay: Antibacterial activity against Enterococcus faecalis CL8516 at 64 ug/mL; format: functional, organism-based
[4] = test system: Staphylococcus aureus; assay: Inhibition of FAS2 in Staphylococcus aureus assessed as inhibition of fatty acid synthesis at 167 ug/ml
[5] = Inhibition of Escherichia coli FabF C163F
[6] = test system: Staphylococcus aureus; assay: Antibacterial activity against Staphylococcus aureus assessed as minimum concentration required to differential zone of clearance between antisense plate compared to control; format: functional
[7] = Inhibition of FAS2 in Staphylococcus aureus assessed as inhibition of fatty acid synthesis by scintillation counting
[8] = Inhibition of FabH in Staphylococcus aureus assessed as inhibition of fatty acid synthesis
[9] = test system: Streptococcus pneumoniae; assay: Antibacterial activity against Streptococcus pneumoniae CL2883; format: functional
[10] = test system: Staphylococcus aureus; assay: Antibacterial activity against Staphylococcus aureus Smith; format: functional
[11] = test system: Enterococcus faecalis; assay: Antibacterial activity against Enterococcus faecalis CL8516; format: functional

| SMILES | Activity [1] | Activity [2] | Activity [3] | Activity [4] | Activity [6] [µg/mL] | IC50 [7] [µg/mL] | also measured |
| --- | --- | --- | --- | --- | --- | --- | --- |
| C=C1C[C@@]23C=CC(=O)[C@@](C)(CCC(=O)Nc4c(O)ccc(C(=O)OC)c4O)C2C[C@@H]1C[C@H]3O (stereo partly drawn) | inactive | inactive | inactive | inactive |  |  |  |
| C=C1C[C@@]23C=CC(=O)[C@@](C)(CCC(=O)Nc4c(O)ccc(C(=O)O)c4O)[C@@H]2C[C@@H]1CC3 [PLATENCIN] |  |  |  |  | 0.2 | 12 (≈ 28.2 µM) | IC50 [5]: 113 nM |
| C=C1C[C@@]23C=CC(=O)[C@@](C)(CCC(=O)Nc4c(O)ccc(C(=O)O)c4O)C2C[C@@H]1C[C@H]3O (stereo partly drawn) |  |  |  |  | 20 | 7.12 (≈ 16.1 µM) | IC50 [8]: 15 µg/mL (≈ 34 µM); MIC [9]: > 64 µg/mL; MIC [10]: 32 µg/mL (≈ 72.5 µM); MIC [11]: 8 µg/mL (≈ 18.1 µM) |
| C=C1C[C@@]23C=CC(=O)[C@@](C)(CCC(=O)OC)C2C[C@@H]1C[C@H]3O (stereo partly drawn) | inactive | inactive | inactive | inactive |  |  |  |
| CC12C[C@@]34C=CC(=O)[C@@](C)(CCC(=O)Nc5c(O)ccc(C(=O)O)c5O)C3[C@H](CC1C4)O2 (stereo partly drawn) [PLATENSIMYCIN] |  |  |  |  |  | 0.5 (≈ 1.13 µM) |  |
